Data set [1] deals with L. infantum promastigotes. The experiment in a line: Antileishmanial activity on L. infantum promastigotes (MTT). Type of data set: cell-based. As to the method: (§1) Promastigote stage of L. infantum (MHOM/TN/80/IPT1, kindly provided by Dr. M. Gramiccia and Dr. T. Di Muccio, ISS, Roma) and L. tropica (MHOM/SY/2012/ISS3130) were cultured in RPMI 1640 medium (EuroClone) supplemented with 15% heat-inactivated fetal calf serum (EuroClone, Milan, Italy), 20 mM HEPES, and 2 mM L-glutamine at 23 °C. The MTT (3-[4.5-dimethylthiazol-2-yl]-2.5-diphenyltetrazolium bromide) method was used to estimate the 50% inhibitory concentration (IC50), with some modifications. Compounds were dissolved in DMSO and then diluted with medium to achieve the required concentrations. Test compounds were placed in 96 wells round bottom microplates and seven serial dilutions made. Amphotericin B was used as the reference antileishmanial drug. Parasites were diluted in complete medium to 5 × 10^6 parasites/mL and 100 μL of the suspension was seeded into the plates and incubated at 23 °C for 72 h. Then 20 μL of MTT solution (5 mg/mL) was added into each well, after 3 h the plates were centrifuged, the supernatants discarded and the resulting pellets dissolved in 100 μL of lysing buffer consisting of 20% (w/v) of a solution of SDS (Sigma), 40% of N,N-dimethylformamide (Merck) in H2O. The absorbance of the obtained solutions was measured at a wavelength of 550 nm with a reference at 650 nm with a microplate spectrophotometer (Synergy 4-Biotek, Milan, Italy) and analyzed with the Gen5® software for data processing.
(§2) The results are expressed as IC50, the dose of compound that is necessary to inhibit cell growth by 50%; each IC50 value is the mean ± standard deviation of at least three separate experiments performed in duplicate.

The test system of data set [2] is L. tropica promastigotes. The experiment in a line: Antileishmanial activity on L. tropica promastigotes (MTT). The format is cell-based. As to the method: as §1, §2
The subject of data set [3] is HMEC-1. The experiment in a line: Cytotoxicity on HMEC-1 (MTT). The format is cell-based, human. To be noted: Homo sapiens, read-out: Healthy Cell Lines IC50, HMEC-1. As to the method: (§3) Cytotoxicity was evaluated on human microvascular endothelial cells (HMEC-1, provided by the Centers for Disease Control, Atlanta, GA, USA), on immortalized mouse C57Bl/6 bone marrow derived macrophages (BMDM) from wild type lineage (generated in the laboratories of Drs. Douglas Golenbock and Kate Fitzgerald, University of Massachusetts, Worcester, MA, USA) and on a human acute monocytic leukaemia cell line (THP-1).
(§4) HMEC-1 were maintained in MCDB 131 medium (Invitrogen, Milan, Italy) supplemented with 10% fetal calf serum (HyClone), 10 ng/mL of epidermal growth factor, 1 μg/mL of hydrocortisone, 2 mM glutamine and 20 mM HEPES buffer, at 37 °C in 5% CO2. BMDM were maintained in DMEM (Euroclone) medium supplemented with 10% fetal bovine serum (HyClone, Celbio, Milan, Italy), 2 mM glutamine, and 25 mM of HEPES buffer solution (Euroclone). THP-1 were maintained in RPMI supplemented with 10% heat-inactivated FCS, 50 µM 2-mercaptoethanol, 10 µM sodium pyruvate, 20 mM HEPES, and 2 mM glutamine. In order to achieve differentiation into macrophages, cells were treated with 10 ng/mL phorbol myristate acetate (PMA) for 72 h.
(§5) For the cytotoxicity assay, cells were seeded in 96 well flat bottom tissue culture clusters (Costar, New York, NY, USA) at the following concentrations: HMEC 10^5 cell/mL, BMDM at 10^6 cell/mL, THP1 at 5 × 10^5 cell/mL. After 24 h, cells were treated with serial dilutions of test compounds in a final volume of 200 µL/well. Cell proliferation was evaluated after 72 h using the MTT assay.
(§6) The absorbances were measured with a microplate spectrophotometer (Synergy 4-Biotek) at a test wavelength of 550 nm and a reference wavelength of 650 nm. The results are expressed as IC50 as the concentration inhibiting 50% of cell growth. Each IC50 value is the mean and standard deviation of at least three separate experiments performed in duplicate.

The subject of data set [4] is THP-1. The experiment in a line: Cytotoxicity on THP-1 (MTT). Type of data set: cell-based, human. To be noted: Homo sapiens, THP-1; PMA-differentiated, 72 h, MTT; read-out: Healthy Cell Lines IC50, THP-1. As for the experimental part: as §3, §4, §5, §6
For data set [5], the system named is BMDM. The experiment in a line: Cytotoxicity on BMDM (MTT). The format is cell-based, mouse. To be noted: Mus musculus, BMDM; 72 h, MTT; read-out: Healthy Cell Lines IC50, BMDM. As for the experimental part: as §3, §4, §5, §6
Data set [6] concerns L. infantum amastigotes. The experiment in a line: Antileishmanial activity on intramacrophage amastigotes of L. infantum. Type of data set: cell-based, Leishmania infantum. As to the method:
Cell monolayers were then washed and incubated in the presence of test compounds for 72 h. Slides were fixed with methanol and stained with Giemsa. The percentage of infected macrophages in treated and non-treated cells was determined by light microscopy.

Data set [7] addresses LbHsp90 (Leishmania braziliensis, UniProt A4HL70). The experiment in a line: In vitro inhibition of the ATPase activity of LbHsp90 (Malachite Green Phosphate Assay). The format is biochemical. To be noted: 7 μM LbHsp90, 27 °C, 60 min. The text has this:
To evaluate in vitro the modulatory activity of CE, PR and CE caboxamides, a full-length recombinant Hsp90 from L. braziliensis (LbHsp90) was produced in E. coli BL21 DE3 harboring the pET28a_LbHsp90 coding for the C-terminal His-tagged target chaperone (genbank number: XP_001567804.1, full sequence is reported in Appendix B). Pratically, the plasmid pET28a_LbHsp90, kindly donated by professor J.C. Borges, was transformed in E. coli BL21 DE3 using the TransformAid Bacterial Transformation Kit (Thermo Fisher, Waltham, MA, USA). Subsequently, the obtained transformants were grown overnight in LB medium containing 30 μg mL^−1 kanamycin (LBkan30) and then inoculated in 1 L SB kan30 medium (Yeast extract 30 g L^−1, Tryptone 20 g L^−1, NaCl 10 g L^−1) at 37 °C and 220 rpm. When the OD600 reached 0.5–1, gene expression was induced by the addition of 2 mL of 1 M IPTG solution in water and the culture was shifted at 30 °C for 24 h. After cell harvesting by centrifugation (5000 rpm for 30 min), the cell pellet was resuspended in 20 mL of wash buffer (20 mM HEPES buffer, pH 7.0, 500 mM NaCl, 20 mM imidazole) and recombinant E. coli BL21DE3 cells were disrupted by ultrasonication. LbHsp90 was subsequently purified using a Nickel Sepharose 6 Fast Flow agarose resin (Ni-NTA) (GE Healthcare, Milan, Italy) as follows. Soluble protein fraction was separated from cell debris by centrifugation (10,000 rpm for 30min) after cell ultrasonication, and clear lysates were incubated with the Ni-NTA resin for 90 min at 4 °C under mild shaking and loaded onto a glass column (10 × 110 mm). The resin was then washed with 10mL of wash buffer and His-tagged LbHsp90 was eluted using a 3 step gradient (10 mL washing buffer containing 100, 200, and 300 mM imidazole, respectively) and dialyzed against 20 mM HEPES buffer (20 mM, pH 7.5), at 4 °C overnight. The protein content was measured using the Bio-Rad Protein Assay (Hercules, CA, USA) according to the Bradford method and the protein purity was verified by SDS-PAGE analysis (10% T, 2.6% C). It is worth noting that to avoid interferences with the assays described below, proteins were purified and conserved in HEPES buffer (20 mM, pH 7.5) in place of the standard PB-buffer. Reported data are the mean of two experiments run in duplicate.
Modulatory activity toward the ATPase cycle of LbHsp90 was determined using a Malachite Green Phosphate Assay Kit (Catalog Number MAK307, Sigma-Aldrich®, St. Louis, MO, USA). Analyses were run in a 96-well plate directly following the quantitative formation of a green complex between Malachite Green, molybdate, and free orthophosphate (Pi) produced by ATP hydrolysis catalyzed by the chaperone. Color formation from the reaction was measured on a plate reader at 620 nm. Briefly, the IC50 of CE and its derivatives were extrapolated from a set of dose-response curves obtained by calculating the amount of Pi produced by LbHsp90 in the presence of different compounds concentrations.
Reactions were run in HEPES buffer (20 mM, pH 7.5) containing 3 mM MgCl2 and 50 mM KCl in the presence of different compounds concentrations ([…]), LbHsp90 (7 μM) and ATP (25 mM) at 27 °C for 60 min. OD620 was measured 30 min after Malachite Green reactants addition.
LbHsp90 native activity was measured by conducting the reaction in the presence of just LbHsp90 and ATP and extrapolating the concentration of Pi obtained.
Three sets of control experiments, (1) ATP background hydrolysis, (2) compounds-related interferences and (3) protein-related background coloration, were run as follow: • (1) ATP (25 mM) incubated at 27 °C for 60 min • (2) Compounds (different concentrations) incubated with ATP (25 mM) at 27 °C for 60 min • (3) LbHsp90 (7 μM) at 27 °C for 60 min
The in vitro performances of CE, PR and the carboxamides 1–11 (Figure 4) as potential inhibitors of the Leishmania braziliensis Hsp90 were investigated using Sigma-Aldrich® Malachite Green Phosphate Assay Kit. […]

Setting [8] is: Leishmania infantum, 72 h, 23 °C, MTT, read-out: Leishmania Promastigotes IC50, L. infantum.
Where [9] appears, read: Leishmania tropica, 72 h, 23 °C, MTT, read-out: Leishmania Promastigotes IC50, L. tropica.

Usually IC50 stands for the concentration at which inhibition is half-maximal. One may read the melting point as the temperature, or range, at which the solid turns liquid.

Like-named read-outs stand apart in the source and are kept apart here.

LbHsp90, sequence (A4HL70 entry or part of it): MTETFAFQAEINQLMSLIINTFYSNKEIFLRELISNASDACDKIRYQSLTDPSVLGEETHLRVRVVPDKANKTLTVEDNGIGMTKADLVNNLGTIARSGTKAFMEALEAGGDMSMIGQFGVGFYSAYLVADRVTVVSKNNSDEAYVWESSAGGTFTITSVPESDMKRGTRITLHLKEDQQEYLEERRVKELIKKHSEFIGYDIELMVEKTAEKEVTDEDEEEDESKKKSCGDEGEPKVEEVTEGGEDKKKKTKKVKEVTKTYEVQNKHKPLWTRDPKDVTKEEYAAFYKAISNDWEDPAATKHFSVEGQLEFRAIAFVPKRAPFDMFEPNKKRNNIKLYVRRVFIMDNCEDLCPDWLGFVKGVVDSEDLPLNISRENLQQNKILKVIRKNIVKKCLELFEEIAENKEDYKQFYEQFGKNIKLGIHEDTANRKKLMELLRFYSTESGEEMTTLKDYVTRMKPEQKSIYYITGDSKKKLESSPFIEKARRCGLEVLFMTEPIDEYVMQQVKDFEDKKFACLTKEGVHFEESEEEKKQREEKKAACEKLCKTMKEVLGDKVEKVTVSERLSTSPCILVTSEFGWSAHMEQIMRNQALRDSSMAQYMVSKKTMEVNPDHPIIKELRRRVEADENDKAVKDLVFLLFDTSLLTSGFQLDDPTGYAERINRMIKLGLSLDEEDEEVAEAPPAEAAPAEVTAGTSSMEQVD

In the case of `C[C@@H]1[C@H](O)[C@@H](C)/C=C/C=C/C=C/C=C/C=C/C=C/C=C/[C@H](O[C@@H]2O[C@H](C)[C@@H](O)[C@H](N)[C@@H]2O)C[C@@H]2O[C@](O)(C[C@@H](O)C[C@@H](O)[C@H](O)CC[C@@H](O)C[C@@H](O)CC(=O)O[C@H]1C)C[C@H](O)[C@H]2C(=O)O` [AMP, amphotericin B, reference compound], the IC50 is 160 ± 50 nM in data set [1] (setting [8]); 170 ± 20 nM in data set [2] (setting [9]); more than 20000 nM in data set [3] (HMEC-1, 72 h, MTT); more than 20000 nM in data set [4]; more than 20000 nM in data set [5]; 180 ± 30 nM in data set [6] (Leishmania infantum, infected THP-1 macrophages, 72 h). In addition, in data set [6] (ratio IC50 on THP-1 cell line / IC50 toward L. infantum amastigotes), the “S.I. (selectivity index)” value is given as more than 109.
Take `CC1=C(O)C(=O)C=C2C1=CC=C1[C@@]2(C)CC[C@@]2(C)[C@@H]3C[C@](C)(C(=O)NCCCNc4ccnc5cc(Cl)ccc45)CC[C@]3(C)CC[C@]12C` [compound 7, (2R,4aS,6aS,12bR,14aS,14bR)-N-(3-((7-chloroquinolin-4-yl)amino)propyl)-10-hydroxy-2,4a,6a,9,12b,14a-hexamethyl-11-oxo-1,2,3,4,4a,5,6,6a,11,12b,13,14,14a,14b-tetradecahydropicene-2-carboxamide]: the melting point is 211.1 to 215 °C. For the same compound, the IC50 in data set [1] (setting [8]) came to 200 ± 10 nM. Moreover, in data set [2] (setting [9]), the 50% inhibitory concentration (IC50) turned out to be 150 ± 40 nM. Besides, the IC50 in data set [3] (HMEC-1, 72 h, MTT) amounted to 130 ± 10 nM. Further, in data set [4], the IC50 was 480 ± 170 nM. Further, in data set [5], the IC50 came out at 1780 ± 530 nM. In addition, in data set [7], the IC50 was more than 125000 nM.
As for `C=CCSSCCNC(=O)[C@]1(C)CC[C@]2(C)CC[C@]3(C)C4=CC=C5C(=CC(=O)C(O)=C5C)[C@]4(C)CC[C@@]3(C)[C@@H]2C1` [compound 10, (2R,4aS,6aS,12bR,14aS,14bR)-N-(2-(allyldisulfanyl)ethyl)-10-hydroxy-2,4a,6a,9,12b,14a-hexamethyl-11-oxo-1,2,3,4,4a,5,6,6a,11,12b,13,14,14a,14b-tetradecahydropicene-2-carboxamide], the melting point lay in the range of 173.7 to 175.1 °C. Also, in data set [1] (Leishmania infantum; 72 h, 23 °C, MTT; read-out: Leishmania Promastigotes IC50, L. infantum), the IC50 was 460 ± 120 nM. In addition, the IC50 in data set [2] (Leishmania tropica; 72 h, 23 °C, MTT; read-out: Leishmania Promastigotes IC50, L. tropica) is 340 ± 210 nM. The IC50 in data set [3] (HMEC-1, 72 h) was found to be 170 ± 40 nM. Moreover, the IC50 in data set [4] stood at 930 ± 270 nM. In addition, the IC50 in data set [5] came to 2860 ± 170 nM. In data set [7], the 50% inhibitory concentration (IC50) is more than 125000 nM.
